From publication PMC5054364, “Neuroprotective pentapeptide CN-105 improves functional and histological outcomes in a murine model of intracerebral hemorrhage” (Scientific Reports, 2016) come the findings set out here.

The nature of this series: CN-105 pharmacokinetics in brain and plasma (LC/MS). It counts as in vivo. To be noted: mice. The text has this:
One rationale for creating the smaller apoE mimetic peptides was to enhance CNS penetration and possibility of noninvasive mechanisms of delivery (for example, intranasal). To define pharmacokinetic parameters, we performed initial non-GLP studies in mice using stable radioisotope labeled CN-105 peptide (MW of heavy CN-105 was 362.7 vs. 357.7). […] The total CNS exposure was 44%; of note, this is approximately 5 fold higher than prior apoE based mimetic peptides.
Experiment 1. CN-105 pharmacokinetics in Brain and Plasma. The concentration of CN-105 was determined at 1, 3, 10, 15, 30 and 60 minutes (n = 5/time point) post injection using LC/MS.
A protocol was developed in collaboration with the Duke University Core Proteomics and Metabolomics Shared Resource using LC/MS on a high-resolution accurate-mass instrument. […] After extraction, samples were dried down in Speed Vac and reconstituted in 25 uL of 1% ACN/0.1% TFA/0.02% HFBA and analyzed using a nanoAcquity LC (Waters) coupled to a Synapt G2 Q-ToF (Waters). Quantitative data was extracted as selected ion chromatograms for both the native ((M + 2H)^2+at m/z 357.7 and heavy-labeled form CN-105 at m/z 362.7). Quantitation was accomplished by using a ratio of the peak area of the analyte and internal standard which was fit to a 7-point calibration curve (plasma R^2 = 0.997 and brain R^2 = 0.999).

In general, half-life refers to the time needed for the level to fall by half in the phase considered. Turning to Ac-VSRRR-NH2 [CN-105, Ac-VSRRR-amide], the “AUC0–60 in brain” value (brain homogenate (urea in buffer), 0-60 minutes post injection, n = 5/time point, LC/MS) is 548 fmol·min/µL. For the same substance, the “total CNS exposure” value (brain versus plasma AUC0–60) is listed as 44%. Also, the “AUC0–60 in plasma” value (plasma, 0-60 minutes post injection, n = 5/time point, LC/MS) was 1253 fmol·min/µL. For the same substance, where the note is “mouse, non-GLP study, stable isotope labeled CN-105, plasma sampled 1-60 minutes post injection, n = 5/time point, LC/MS, read-out: terminal plasma half-life”, the half-life stood at 27 min.
